Pest or weed control and mortality data for 17 compounds are collected here from patent US12677830B2, “3-alkoxybenzamide derivative, and pest control agent” (Kumiai Chemical Industry Co., Ltd., priority 2020, dated 2026).

Common to all, as to type: in vivo
One assay concerns Tetranychus urticae. The assay can be described thus: Test for control effect against Tetranychus urticae (soybean seedling dip). To be noted: 312 h, 500 ppm active ingredient (wettable powder in water), soybean seedling inoculated with 35 female adults immersed, 25° C., 13 days after the treatment, read-out: controlling value. The method, then:
[Test Example 5] Test for Control Effect Against Tetranychus urticae
The wettable powder prepared in accordance with Formulation Example 2 was diluted with water to a concentration of 500 ppm as an active ingredient. A soybean seedling previously inoculated with 35 female adults of Tetranychus urticae was immersed in the chemical solution, and air-dried. The treated soybean seedling was placed in a room at constant temperature of 25° C. The number of surviving female adults was examined at 13 days after the treatment, and the controlling value was determined by the calculation formula of Equation 2. The number of replicate is one in each test.
The compound numbers of the compounds showing a controlling value of 90 or more in this test are listed below.

The subject of another assay is Helicoverpa armigera. The assay is described as follows: Test for insecticidal activity against Helicoverpa armigera (cabbage leaf dip). As to conditions: foliar, 144 h, 500 ppm active ingredient (wettable powder in water), cabbage leaves immersed, five hatching larvae, 25° C., 6 days after the treatment, read-out: mortality rate. The method, then: [Test Example 2] Test for Insecticidal Activity Against Helicoverpa armigera
The wettable powder prepared in accordance with Formulation Example 2 was diluted with water to a concentration of 500 ppm as an active ingredient. Cabbage leaves were immersed in the chemical solution, air-dried, and then placed in a plastic cup. Five hatching larvae of Helicoverpa armigera were released into the cup, and the cup was capped. Thereafter, the cup was placed in a room at constant temperature of 25° C. The number of dead insects was examined at 6 days after the treatment, and the mortality rate was calculated by the calculation formula of Equation 1. The number of replicate is two in each test.
(§1) The compound numbers of the compounds showing a mortality rate of 90% or more in this test are listed below.

The test system of a further assay is Aphis gossypii. The assay is described as follows: Test for control effect against Aphis gossypii (cucumber seedling dip). To be noted: 72 h, 500 ppm active ingredient (wettable powder in water), cucumber seedling inoculated with nymphs immersed, 25° C., 3 days after the treatment, read-out: mortality rate. Here is the method:
[Test Example 4] Test for Control Effect Against Aphis gossypii
The wettable powder prepared in accordance with Formulation Example 2 was diluted with water to a concentration of 500 ppm as an active ingredient. A cucumber seedling previously inoculated with Aphis gossypii nymphs was immersed in the chemical solution, and air-dried. The treated cucumber seedling was placed in a room at constant temperature of 25° C. The number of surviving insects was counted at 3 days after the treatment, and the mortality rate was calculated by the calculation formula of Equation 1. The number of replicate is one in each test.
as §1

Another assay relates to Nilaparvata lugens. The assay is described as follows: Test for insecticidal activity against Nilaparvata lugens (rice sprout dip). To be noted: 144 h, 500 ppm active ingredient (wettable powder in water), rice sprouts immersed, ten second instar larvae, 25° C., 6 days after the treatment, read-out: mortality rate. Here is the method:
[Test Example 3] Test for Insecticidal Activity Against Nilaparvata lugens
The wettable powder prepared in accordance with Formulation Example 2 was diluted with water to a concentration of 500 ppm as an active ingredient. The rice sprouts were immersed in the chemical solution, and placed in a plastic cup. Ten second instar larvae of Nilaparvata lugens were released into the plastic cup, and the cup was capped. Thereafter, the cup was placed in a room at constant temperature of 25° C. The number of dead insects was examined at 6 days after the treatment, and the mortality rate was calculated by the calculation formula of Equation 1. The number of replicate is one in each test.
as §1

For another assay, the system named is Plutella xylostella. The assay is described as follows: Test for insecticidal activity against Plutella xylostella (cabbage leaf dip). As to conditions: foliar, 144 h, 500 ppm active ingredient (wettable powder in water), cabbage leaves immersed, ten second instar larvae, 25° C., 6 days after the treatment, read-out: mortality rate. Here is the method: [Test Example 1] Test for Insecticidal Activity Against Plutella xylostella
The wettable powder prepared in accordance with Formulation Example 2 was diluted with water to a concentration of 500 ppm as an active ingredient. Cabbage leaves were immersed in the chemical solution, air-dried, and then placed in a plastic cup. Ten second instar larvae of Plutella xylostella were released into the cup, and the cup was capped. Thereafter, the cup was placed in a room at constant temperature of 25° C. The number of dead insects was examined at 6 days after the treatment, and the mortality rate was calculated by the calculation formula of Equation 1. The number of replicate is one in each test.
as §1

A value given as a limit tells only on which side of the number the result lay.

On to `C[C@H](COc1cc(C(=O)NCC(F)(F)F)c(Cl)cc1F)NS(=O)(=O)C(F)(F)F` [Compound C-0005, (R)-2-chloro-4-fluoro-N-(2,2,2-trifluoroethyl)-5-{2-[(trifluoromethyl)sulfonamido]propoxy}benzamide], for which the pest or weed control at 500 ppm with Tetranychus urticae is no less than 90%.
On the same count and under the same terms, the same measure for `Fc1cc(Cl)c(C(=S)NCC(F)(F)F)cc1OCCCCCSC(F)(F)F` [Compound A-5172, 2-chloro-4-fluoro-N-(2,2,2-trifluoroethyl)-5-({5-[(trifluoromethyl)thio]pentyl}oxy)thiobenzamide]: no less than 90%; for `CC(COc1cc(C(=O)NCC(F)(F)F)c(Cl)cc1F)CSC#N` (stereo not shown) [Compound A-0758, 2-chloro-4-fluoro-5-(2-methyl-3-thiocyanatopropoxy)-N-(2,2,2-trifluoroethyl)benzamide]: no less than 90%.
A word on the mortality: it is the share of the test organisms that died. Take `CC(COc1cc(C(=O)NCC(F)(F)F)c(Cl)cc1F)CSC(F)(F)F` (stereo not shown) [Compound B-0009, 2-chloro-4-fluoro-5-{2-methyl-3-[(trifluoromethyl)thio]propoxy}-N-(2,2,2-trifluoroethyl)benzamide]: the mortality at 500 ppm in the assay on Helicoverpa armigera, in the assay with Aphis gossypii, in the assay with Nilaparvata lugens and in the assay with Plutella xylostella was no less than 90% in each case. In the assay with Tetranychus urticae, the pest or weed control at 500 ppm was no less than 90%.
In the case of `Cc1cc(F)c(OCCCCCSC(F)(F)F)cc1C(=O)NCC(F)(F)F` [Compound A-4712, 4-fluoro-2-methyl-N-(2,2,2-trifluoroethyl)-5-({5-[(trifluoromethyl)thio]pentyl}oxy)benzamide], the pest or weed control at 500 ppm with Tetranychus urticae is no less than 90%.
As for `CC(=O)N(CC(F)(F)F)C(=O)c1cc(OCC(C)NS(=O)(=O)C(F)(F)F)c(F)cc1Cl` (stereo not shown) [Compound C-4214, N-acetyl-2-chloro-4-fluoro-N-(2,2,2-trifluoroethyl)-5-{2-[(trifluoromethyl)sulfonamido]propoxy}benzamide], the mortality at 500 ppm in the assay with Helicoverpa armigera, in the assay with Aphis gossypii, in the assay with Nilaparvata lugens and with Plutella xylostella was no less than 90% throughout. Besides, in the assay with Tetranychus urticae, the pest or weed control at 500 ppm was no less than 90%.
`CC(CCl)COc1cc(C(=O)NCC(F)(F)F)c(Cl)cc1F` (stereo not shown) [Compound A-0037, 2-chloro-5-(3-chloro-2-methylpropoxy)-4-fluoro-N-(2,2,2-trifluoroethyl)benzamide]: the pest or weed control at 500 ppm with Tetranychus urticae is no less than 90%.
Same read-out and setting: the same measure for `O=C(NCC(F)(F)F)c1cc(OCCCCCSC(F)(F)F)c(F)cc1Cl` [Compound A-4689, 2-chloro-4-fluoro-N-(2,2,2-trifluoroethyl)-5-({5-[(trifluoromethyl)thio]pentyl}oxy)benzamide]: no less than 90%.
Take `N#CSCCCCCOc1cc(C(=O)NCC(F)(F)F)c(Cl)cc1F` [Compound A-0752, 2-chloro-4-fluoro-5-[(5-thiocyanatopentyl)oxy]-N-(2,2,2-trifluoroethyl)benzamide]: in the assay on Nilaparvata lugens, the mortality at 500 ppm is no less than 90%.
Take `CC(=O)N(CC(F)(F)F)C(=O)c1cc(OCCCCCSC(F)(F)F)c(F)cc1Cl` [Compound A-6814, N-acetyl-2-chloro-4-fluoro-N-(2,2,2-trifluoroethyl)-5-({5-[(trifluoromethyl)thio]pentyl}oxy)benzamide]: in the assay with Tetranychus urticae, the pest or weed control at 500 ppm was no less than 90%. For the same compound, the mortality at 500 ppm in the assay on Nilaparvata lugens is no less than 90%.
On to `O=C(NCC(F)(F)F)c1cc(OCCCCCBr)c(F)cc1Cl` [Compound A-0030, 5-[(5-bromopentyl)oxy]-2-chloro-4-fluoro-N-(2,2,2-trifluoroethyl)benzamide], for which, in the assay on Tetranychus urticae, the pest or weed control at 500 ppm was no less than 90%.
Regarding `C[C@@H](COc1cc(C(=O)NC2(C#N)CC2)c(Cl)cc1F)NS(=O)(=O)C(F)(F)F` [Compound C-2980, (S)-2-chloro-N-(1-cyanocyclopropyl)-4-fluoro-5-{2-[(trifluoromethyl)sulfonamido]propoxy}benzamide], the mortality at 500 ppm in the assay with Aphis gossypii, in the assay with Nilaparvata lugens and with Plutella xylostella was no less than 90% each time. In addition, the pest or weed control at 500 ppm with Tetranychus urticae was no less than 90%.
In the case of `C[C@@H](COc1cc(C(=O)NCC(F)(F)F)c(Cl)cc1F)NS(=O)(=O)C(F)(F)F` [Compound C-0006, (S)-2-chloro-4-fluoro-N-(2,2,2-trifluoroethyl)-5-{2-[(trifluoromethyl)sulfonamido]propoxy}benzamide], the mortality at 500 ppm in the assay with Helicoverpa armigera, in the assay with Aphis gossypii, with Nilaparvata lugens and in the assay with Plutella xylostella was no less than 90% in each case. Besides, in the assay on Tetranychus urticae, the pest or weed control at 500 ppm is no less than 90%.
Consider `N#CCN(CC(F)(F)F)C(=O)c1cc(OCCCCCSC(F)(F)F)c(F)cc1Cl` [Compound A-6692, 2-chloro-N-(cyanomethyl)-4-fluoro-N-(2,2,2-trifluoroethyl)-5-({5-[(trifluoromethyl)thio]pentyl}oxy)benzamide], for which, in the assay on Tetranychus urticae, the pest or weed control at 500 ppm is no less than 90%. Besides, the mortality at 500 ppm in the assay with Plutella xylostella is no less than 90%.
As for `CC(COc1cc(C(=O)NCC(F)(F)F)c(Cl)cc1F)N(C(=O)OC(C)(C)C)S(=O)(=O)C(F)(F)F` (stereo not shown) [Compound C-9422, tert-butyl(1-{4-chloro-2-fluoro-5-[(2,2,2-trifluoroethyl)carbamoyl]phenoxy}propan-2-yl)[(trifluoromethyl)sulfonyl]carbamate], the mortality at 500 ppm with Helicoverpa armigera, in the assay with Aphis gossypii, with Nilaparvata lugens and with Plutella xylostella was no less than 90% throughout. Also, the pest or weed control at 500 ppm with Tetranychus urticae is no less than 90%.
On to `CC(COc1cc(C(=O)NCC(F)(F)F)c(Cl)cc1F)NS(=O)(=O)C(F)(F)F` (stereo not shown) [Compound C-0004, 2-chloro-4-fluoro-N-(2,2,2-trifluoroethyl)-5-{2-[(trifluoromethyl)sulfonamido]propoxy}benzamide], for which the mortality at 500 ppm in the assay on Helicoverpa armigera, in the assay with Aphis gossypii, with Nilaparvata lugens and with Plutella xylostella was no less than 90% throughout. Besides, the pest or weed control at 500 ppm in the assay with Tetranychus urticae was no less than 90%.
As for `C[C@@H](COc1cc(C(=O)NC2CC2)c(Cl)cc1F)NS(=O)(=O)C(F)(F)F` [Compound C-0130, (S)-2-chloro-N-cyclopropyl-4-fluoro-5-{2-[(trifluoromethyl)sulfonamido]propoxy}benzamide], the mortality at 500 ppm in the assay on Helicoverpa armigera, in the assay with Aphis gossypii, with Nilaparvata lugens and with Plutella xylostella was no less than 90% throughout. Besides, in the assay with Tetranychus urticae, the pest or weed control at 500 ppm is no less than 90%.
